# Laboratory results published in the supplement of paper PMC8967900.
# Test system: MOLT-4
# Experiment: selective drug sensitivity score (sDSS, relative to normal bone marrow) (sDSS (score)); higher = more potent and effective on the cell line relative to normal bone marrow cells
# Settings: 72 h
# 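Also: ALL cell lines in 384-well plates, five doses spanning 10,000-fold, each plate scaled between vehicle and 100 µmol/L benzalkonium chloride controls, sDSS an adapted area-under-curve metric.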
row,SMILES,selective drug sensitivity score
1,NCCNc1ccc(NCCN)c2c1C(=O)c1ccncc1C2=O [Pixantrone] (top concentration 10000 nM),-2.76
2,c1cc(CN2CCCNCCNCCCNCC2)ccc1CN1CCCNCCNCCCNCC1 [Plerixafor] (top concentration 10000 nM),0
3,O=C(c1ccc(OCCN2CCCCC2)cc1)c1c(-c2ccc(O)cc2)sc2cc(O)ccc12 [Raloxifene] (top concentration 10000 nM),1.42
4,CN(C)C(=O)c1cc2cnc(Nc3ccc(N4CCNCC4)cn3)nc2n1C1CCCC1 [Ribociclib] (top concentration 10000 nM),-1.02
5,CN1CCN(CCOc2cc(OC3CCOCC3)c3c(Nc4c(Cl)ccc5c4OCO5)ncnc3c2)CC1 [Saracatinib] (top concentration 10000 nM),1.58
6,C=CC(=O)Nc1cccc(Nc2nc(Nc3ccc(OCCOC)cc3)ncc2F)c1 [Spebrutinib] (top concentration 1000 nM),-0.16
7,C[C@@H]1CN(Cc2ccc(F)cc2)[C@@H](C)CN1C(=O)c1cc2c(C(=O)C(=O)N(C)C)cn(C)c2cc1Cl [Talmapimod] (top concentration 10000 nM),0
8,C[C@@H](C(=O)O)c1ccc(-c2ccccc2)c(F)c1 [Tarenflurbil] (top concentration 10000 nM),0.14
9,CNC(=O)c1cc(COc2nnc(Nc3ccc(Cl)cc3)c3ccoc23)ccn1 [Telatinib] (top concentration 10000 nM),0
10,O=c1sn(-c2cccc3ccccc23)c(=O)n1Cc1ccccc1 [Tideglusib] (top concentration 3000 nM),-0.3
11,COc1cc2nccc(Oc3ccc(NC(=O)Nc4cc(C)on4)c(Cl)c3)c2cc1OC [Tivozanib] (top concentration 10000 nM),3.46
12,Cc1cc(Nc2cc(N3CCN(C)CC3)nc(Sc3ccc(NC(=O)C4CC4)cc3)n2)n[nH]1 [Tozasertib] (top concentration 10000 nM),15.6
13,CC1=C(/C=C/C(C)=C/C=C/C(C)=C/C(=O)O)C(C)(C)CCC1 [Tretinoin] (top concentration 10000 nM),-2.4
14,COC(=O)c1ccc2c(c1)[nH]c1ncnc(NCCCN3CCCCC3)c12 [UM729] (top concentration 10000 nM),2.04
15,COc1cc2c(NC3CCN(C(C)C)CC3)nc(N3CCC(F)(F)CC3)nc2cc1OCCCN1CCCC1 [UNC0642] (top concentration 10000 nM),-3.44
16,O=C(c1ccc(C(=O)N2CCC(N3CCCC3)CC2)c(Nc2ccccc2)c1)N1CCC(N2CCCC2)CC1 [UNC1215] (top concentration 10000 nM),0
17,CCCC(CCC)C(=O)O [Valproic_acid] (top concentration 1000000 nM),0
18,Clc1ccc(Nc2nnc(Cc3ccncc3)c3ccccc23)cc1 [Vatalanib] (top concentration 10000 nM),0
19,CCCS(=O)(=O)Nc1ccc(F)c(C(=O)c2c[nH]c3ncc(-c4ccc(Cl)cc4)cc23)c1F [Vemurafenib] (top concentration 10000 nM),2.26

# Test system: RPMI-8402
# Experiment: as above
# Settings: 72 h
row,SMILES,selective drug sensitivity score
1,NCCNc1ccc(NCCN)c2c1C(=O)c1ccncc1C2=O [Pixantrone] (top concentration 10000 nM),-2.76
2,c1cc(CN2CCCNCCNCCCNCC2)ccc1CN1CCCNCCNCCCNCC1 [Plerixafor] (top concentration 10000 nM),0
3,O=C(c1ccc(OCCN2CCCCC2)cc1)c1c(-c2ccc(O)cc2)sc2cc(O)ccc12 [Raloxifene] (top concentration 10000 nM),1.92
4,CN(C)C(=O)c1cc2cnc(Nc3ccc(N4CCNCC4)cn3)nc2n1C1CCCC1 [Ribociclib] (top concentration 10000 nM),2.98
5,CN1CCN(CCOc2cc(OC3CCOCC3)c3c(Nc4c(Cl)ccc5c4OCO5)ncnc3c2)CC1 [Saracatinib] (top concentration 10000 nM),4.98
6,C=CC(=O)Nc1cccc(Nc2nc(Nc3ccc(OCCOC)cc3)ncc2F)c1 [Spebrutinib] (top concentration 1000 nM),-0.16
7,C[C@@H]1CN(Cc2ccc(F)cc2)[C@@H](C)CN1C(=O)c1cc2c(C(=O)C(=O)N(C)C)cn(C)c2cc1Cl [Talmapimod] (top concentration 10000 nM),0.8
8,C[C@@H](C(=O)O)c1ccc(-c2ccccc2)c(F)c1 [Tarenflurbil] (top concentration 10000 nM),-0.16
9,CNC(=O)c1cc(COc2nnc(Nc3ccc(Cl)cc3)c3ccoc23)ccn1 [Telatinib] (top concentration 10000 nM),0
10,O=c1sn(-c2cccc3ccccc23)c(=O)n1Cc1ccccc1 [Tideglusib] (top concentration 3000 nM),-0.3
11,COc1cc2nccc(Oc3ccc(NC(=O)Nc4cc(C)on4)c(Cl)c3)c2cc1OC [Tivozanib] (top concentration 10000 nM),1.76
12,Cc1cc(Nc2cc(N3CCN(C)CC3)nc(Sc3ccc(NC(=O)C4CC4)cc3)n2)n[nH]1 [Tozasertib] (top concentration 10000 nM),4.56
13,CC1=C(/C=C/C(C)=C/C=C/C(C)=C/C(=O)O)C(C)(C)CCC1 [Tretinoin] (top concentration 10000 nM),-2.4
14,COC(=O)c1ccc2c(c1)[nH]c1ncnc(NCCCN3CCCCC3)c12 [UM729] (top concentration 10000 nM),2.34
15,COc1cc2c(NC3CCN(C(C)C)CC3)nc(N3CCC(F)(F)CC3)nc2cc1OCCCN1CCCC1 [UNC0642] (top concentration 10000 nM),-0.74
16,O=C(c1ccc(C(=O)N2CCC(N3CCCC3)CC2)c(Nc2ccccc2)c1)N1CCC(N2CCCC2)CC1 [UNC1215] (top concentration 10000 nM),0
17,CCCC(CCC)C(=O)O [Valproic_acid] (top concentration 1000000 nM),0
18,Clc1ccc(Nc2nnc(Cc3ccncc3)c3ccccc23)cc1 [Vatalanib] (top concentration 10000 nM),0
19,CCCS(=O)(=O)Nc1ccc(F)c(C(=O)c2c[nH]c3ncc(-c4ccc(Cl)cc4)cc23)c1F [Vemurafenib] (top concentration 10000 nM),2.06

# Test system: KARPAS-45
# Experiment: as above
# Settings: 72 h
row,SMILES,selective drug sensitivity score
1,NCCNc1ccc(NCCN)c2c1C(=O)c1ccncc1C2=O [Pixantrone] (top concentration 10000 nM),-0.86
2,c1cc(CN2CCCNCCNCCCNCC2)ccc1CN1CCCNCCNCCCNCC1 [Plerixafor] (top concentration 10000 nM),0
3,O=C(c1ccc(OCCN2CCCCC2)cc1)c1c(-c2ccc(O)cc2)sc2cc(O)ccc12 [Raloxifene] (top concentration 10000 nM),3.32
4,CN(C)C(=O)c1cc2cnc(Nc3ccc(N4CCNCC4)cn3)nc2n1C1CCCC1 [Ribociclib] (top concentration 10000 nM),0.68
5,CN1CCN(CCOc2cc(OC3CCOCC3)c3c(Nc4c(Cl)ccc5c4OCO5)ncnc3c2)CC1 [Saracatinib] (top concentration 10000 nM),5.68
6,C=CC(=O)Nc1cccc(Nc2nc(Nc3ccc(OCCOC)cc3)ncc2F)c1 [Spebrutinib] (top concentration 1000 nM),1.14
7,C[C@@H]1CN(Cc2ccc(F)cc2)[C@@H](C)CN1C(=O)c1cc2c(C(=O)C(=O)N(C)C)cn(C)c2cc1Cl [Talmapimod] (top concentration 10000 nM),0
8,C[C@@H](C(=O)O)c1ccc(-c2ccccc2)c(F)c1 [Tarenflurbil] (top concentration 10000 nM),-0.16
9,CNC(=O)c1cc(COc2nnc(Nc3ccc(Cl)cc3)c3ccoc23)ccn1 [Telatinib] (top concentration 10000 nM),0
10,O=c1sn(-c2cccc3ccccc23)c(=O)n1Cc1ccccc1 [Tideglusib] (top concentration 3000 nM),-0.3
11,COc1cc2nccc(Oc3ccc(NC(=O)Nc4cc(C)on4)c(Cl)c3)c2cc1OC [Tivozanib] (top concentration 10000 nM),3.86
12,Cc1cc(Nc2cc(N3CCN(C)CC3)nc(Sc3ccc(NC(=O)C4CC4)cc3)n2)n[nH]1 [Tozasertib] (top concentration 10000 nM),8.56
13,CC1=C(/C=C/C(C)=C/C=C/C(C)=C/C(=O)O)C(C)(C)CCC1 [Tretinoin] (top concentration 10000 nM),-1.8
14,COC(=O)c1ccc2c(c1)[nH]c1ncnc(NCCCN3CCCCC3)c12 [UM729] (top concentration 10000 nM),2.34
15,COc1cc2c(NC3CCN(C(C)C)CC3)nc(N3CCC(F)(F)CC3)nc2cc1OCCCN1CCCC1 [UNC0642] (top concentration 10000 nM),3.56
16,O=C(c1ccc(C(=O)N2CCC(N3CCCC3)CC2)c(Nc2ccccc2)c1)N1CCC(N2CCCC2)CC1 [UNC1215] (top concentration 10000 nM),0
17,CCCC(CCC)C(=O)O [Valproic_acid] (top concentration 1000000 nM),0
18,Clc1ccc(Nc2nnc(Cc3ccncc3)c3ccccc23)cc1 [Vatalanib] (top concentration 10000 nM),0
19,CCCS(=O)(=O)Nc1ccc(F)c(C(=O)c2c[nH]c3ncc(-c4ccc(Cl)cc4)cc23)c1F [Vemurafenib] (top concentration 10000 nM),4.16

# Test system: COG-LL-317
# Experiment: as above
# Settings: 72 h
row,SMILES,selective drug sensitivity score
1,NCCNc1ccc(NCCN)c2c1C(=O)c1ccncc1C2=O [Pixantrone] (top concentration 10000 nM),-2.76
2,c1cc(CN2CCCNCCNCCCNCC2)ccc1CN1CCCNCCNCCCNCC1 [Plerixafor] (top concentration 10000 nM),0
3,O=C(c1ccc(OCCN2CCCCC2)cc1)c1c(-c2ccc(O)cc2)sc2cc(O)ccc12 [Raloxifene] (top concentration 10000 nM),0.42
4,CN(C)C(=O)c1cc2cnc(Nc3ccc(N4CCNCC4)cn3)nc2n1C1CCCC1 [Ribociclib] (top concentration 10000 nM),0.38
5,CN1CCN(CCOc2cc(OC3CCOCC3)c3c(Nc4c(Cl)ccc5c4OCO5)ncnc3c2)CC1 [Saracatinib] (top concentration 10000 nM),1.78
6,C=CC(=O)Nc1cccc(Nc2nc(Nc3ccc(OCCOC)cc3)ncc2F)c1 [Spebrutinib] (top concentration 1000 nM),-0.16
7,C[C@@H]1CN(Cc2ccc(F)cc2)[C@@H](C)CN1C(=O)c1cc2c(C(=O)C(=O)N(C)C)cn(C)c2cc1Cl [Talmapimod] (top concentration 10000 nM),0
8,C[C@@H](C(=O)O)c1ccc(-c2ccccc2)c(F)c1 [Tarenflurbil] (top concentration 10000 nM),-0.16
9,CNC(=O)c1cc(COc2nnc(Nc3ccc(Cl)cc3)c3ccoc23)ccn1 [Telatinib] (top concentration 10000 nM),0
10,O=c1sn(-c2cccc3ccccc23)c(=O)n1Cc1ccccc1 [Tideglusib] (top concentration 3000 nM),-0.3
11,COc1cc2nccc(Oc3ccc(NC(=O)Nc4cc(C)on4)c(Cl)c3)c2cc1OC [Tivozanib] (top concentration 10000 nM),0.86
12,Cc1cc(Nc2cc(N3CCN(C)CC3)nc(Sc3ccc(NC(=O)C4CC4)cc3)n2)n[nH]1 [Tozasertib] (top concentration 10000 nM),21.6
13,CC1=C(/C=C/C(C)=C/C=C/C(C)=C/C(=O)O)C(C)(C)CCC1 [Tretinoin] (top concentration 10000 nM),-1.8
14,COC(=O)c1ccc2c(c1)[nH]c1ncnc(NCCCN3CCCCC3)c12 [UM729] (top concentration 10000 nM),0.94
15,COc1cc2c(NC3CCN(C(C)C)CC3)nc(N3CCC(F)(F)CC3)nc2cc1OCCCN1CCCC1 [UNC0642] (top concentration 10000 nM),1.66
16,O=C(c1ccc(C(=O)N2CCC(N3CCCC3)CC2)c(Nc2ccccc2)c1)N1CCC(N2CCCC2)CC1 [UNC1215] (top concentration 10000 nM),0
17,CCCC(CCC)C(=O)O [Valproic_acid] (top concentration 1000000 nM),0
18,Clc1ccc(Nc2nnc(Cc3ccncc3)c3ccccc23)cc1 [Vatalanib] (top concentration 10000 nM),0.5
19,CCCS(=O)(=O)Nc1ccc(F)c(C(=O)c2c[nH]c3ncc(-c4ccc(Cl)cc4)cc23)c1F [Vemurafenib] (top concentration 10000 nM),3.26

# Test system: MOLT-14
# Experiment: as above
# Settings: 72 h
row,SMILES,selective drug sensitivity score
1,NCCNc1ccc(NCCN)c2c1C(=O)c1ccncc1C2=O [Pixantrone] (top concentration 10000 nM),-2.76
2,c1cc(CN2CCCNCCNCCCNCC2)ccc1CN1CCCNCCNCCCNCC1 [Plerixafor] (top concentration 10000 nM),0
3,O=C(c1ccc(OCCN2CCCCC2)cc1)c1c(-c2ccc(O)cc2)sc2cc(O)ccc12 [Raloxifene] (top concentration 10000 nM),2.92
4,CN(C)C(=O)c1cc2cnc(Nc3ccc(N4CCNCC4)cn3)nc2n1C1CCCC1 [Ribociclib] (top concentration 10000 nM),1.18
5,CN1CCN(CCOc2cc(OC3CCOCC3)c3c(Nc4c(Cl)ccc5c4OCO5)ncnc3c2)CC1 [Saracatinib] (top concentration 10000 nM),7.98
6,C=CC(=O)Nc1cccc(Nc2nc(Nc3ccc(OCCOC)cc3)ncc2F)c1 [Spebrutinib] (top concentration 1000 nM),-0.16
7,C[C@@H]1CN(Cc2ccc(F)cc2)[C@@H](C)CN1C(=O)c1cc2c(C(=O)C(=O)N(C)C)cn(C)c2cc1Cl [Talmapimod] (top concentration 10000 nM),0
8,C[C@@H](C(=O)O)c1ccc(-c2ccccc2)c(F)c1 [Tarenflurbil] (top concentration 10000 nM),-0.16
9,CNC(=O)c1cc(COc2nnc(Nc3ccc(Cl)cc3)c3ccoc23)ccn1 [Telatinib] (top concentration 10000 nM),0
10,O=c1sn(-c2cccc3ccccc23)c(=O)n1Cc1ccccc1 [Tideglusib] (top concentration 3000 nM),-0.3
11,COc1cc2nccc(Oc3ccc(NC(=O)Nc4cc(C)on4)c(Cl)c3)c2cc1OC [Tivozanib] (top concentration 10000 nM),4.46
12,Cc1cc(Nc2cc(N3CCN(C)CC3)nc(Sc3ccc(NC(=O)C4CC4)cc3)n2)n[nH]1 [Tozasertib] (top concentration 10000 nM),20.9
13,CC1=C(/C=C/C(C)=C/C=C/C(C)=C/C(=O)O)C(C)(C)CCC1 [Tretinoin] (top concentration 10000 nM),-2.4
14,COC(=O)c1ccc2c(c1)[nH]c1ncnc(NCCCN3CCCCC3)c12 [UM729] (top concentration 10000 nM),3.94
15,COc1cc2c(NC3CCN(C(C)C)CC3)nc(N3CCC(F)(F)CC3)nc2cc1OCCCN1CCCC1 [UNC0642] (top concentration 10000 nM),-1.24
16,O=C(c1ccc(C(=O)N2CCC(N3CCCC3)CC2)c(Nc2ccccc2)c1)N1CCC(N2CCCC2)CC1 [UNC1215] (top concentration 10000 nM),0
17,CCCC(CCC)C(=O)O [Valproic_acid] (top concentration 1000000 nM),0
18,Clc1ccc(Nc2nnc(Cc3ccncc3)c3ccccc23)cc1 [Vatalanib] (top concentration 10000 nM),0
19,CCCS(=O)(=O)Nc1ccc(F)c(C(=O)c2c[nH]c3ncc(-c4ccc(Cl)cc4)cc23)c1F [Vemurafenib] (top concentration 10000 nM),2.66
